Measurements published in PMC4009756, “In Vitro High Throughput Screening, What Next? Lessons from the Screening for Aurora Kinase Inhibitors” (Biology, 2014).

What was measured:
Assay type in all cases: biochemical
[1] = biological target: T1, aurora kinase A (Homo sapiens, UniProt O14965); experiment: in vitro histone H3 phosphorylation by recombinant kinase domain; conditions: read-out: % inhibition at 1.5 μM
T1 construct: gene AURKA; recombinant kinase domain
T1 sequence (O14965 133-383 limits assumed): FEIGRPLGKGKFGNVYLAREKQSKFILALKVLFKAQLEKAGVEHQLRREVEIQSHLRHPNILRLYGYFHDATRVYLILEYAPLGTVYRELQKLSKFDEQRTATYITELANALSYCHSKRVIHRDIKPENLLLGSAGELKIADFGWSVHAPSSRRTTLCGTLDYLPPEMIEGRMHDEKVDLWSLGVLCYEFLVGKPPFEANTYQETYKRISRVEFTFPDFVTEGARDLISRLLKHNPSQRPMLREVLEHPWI

[2] = biological target: T2, TrkA "Tropomyosin Related kinase A" (Homo sapiens, UniProt P04629); experiment: in vitro kinase profiling (MRC Dundee), […], duplicate
T2 construct: gene NTRK1; recombinant kinase (NM_001007792.1)

[3] = biological target: T3, NUAK1-ARK5 "SnF1-like Kinase" (Homo sapiens, UniProt O60285); experiment: as above
T3 construct: recombinant kinase (NM_014840)
T3 sequence (O60285 1-661): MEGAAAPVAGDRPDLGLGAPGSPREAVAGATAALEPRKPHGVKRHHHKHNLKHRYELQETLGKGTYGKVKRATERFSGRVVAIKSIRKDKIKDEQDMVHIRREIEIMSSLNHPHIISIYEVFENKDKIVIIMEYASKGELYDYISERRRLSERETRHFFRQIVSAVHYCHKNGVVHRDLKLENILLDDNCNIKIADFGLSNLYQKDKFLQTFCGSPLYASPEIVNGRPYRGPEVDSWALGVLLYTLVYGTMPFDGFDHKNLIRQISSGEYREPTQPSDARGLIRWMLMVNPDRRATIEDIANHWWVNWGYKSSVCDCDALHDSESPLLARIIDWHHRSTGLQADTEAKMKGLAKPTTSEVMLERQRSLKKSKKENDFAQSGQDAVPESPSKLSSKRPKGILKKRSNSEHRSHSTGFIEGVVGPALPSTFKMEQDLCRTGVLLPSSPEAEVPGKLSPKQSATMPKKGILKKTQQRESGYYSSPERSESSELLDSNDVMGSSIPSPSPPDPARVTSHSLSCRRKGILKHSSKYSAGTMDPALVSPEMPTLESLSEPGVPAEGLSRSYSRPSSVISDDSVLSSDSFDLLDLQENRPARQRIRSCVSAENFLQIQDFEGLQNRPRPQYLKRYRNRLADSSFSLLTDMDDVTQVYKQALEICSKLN

[4] = biological target: T4, Tak1 "Transforming growth factor beta activated kinase" (Homo sapiens, UniProt O43318); experiment: as above
T4 construct: gene MAP3K7; recombinant kinase (NM_003188)
T4 sequence (O43318 1-606): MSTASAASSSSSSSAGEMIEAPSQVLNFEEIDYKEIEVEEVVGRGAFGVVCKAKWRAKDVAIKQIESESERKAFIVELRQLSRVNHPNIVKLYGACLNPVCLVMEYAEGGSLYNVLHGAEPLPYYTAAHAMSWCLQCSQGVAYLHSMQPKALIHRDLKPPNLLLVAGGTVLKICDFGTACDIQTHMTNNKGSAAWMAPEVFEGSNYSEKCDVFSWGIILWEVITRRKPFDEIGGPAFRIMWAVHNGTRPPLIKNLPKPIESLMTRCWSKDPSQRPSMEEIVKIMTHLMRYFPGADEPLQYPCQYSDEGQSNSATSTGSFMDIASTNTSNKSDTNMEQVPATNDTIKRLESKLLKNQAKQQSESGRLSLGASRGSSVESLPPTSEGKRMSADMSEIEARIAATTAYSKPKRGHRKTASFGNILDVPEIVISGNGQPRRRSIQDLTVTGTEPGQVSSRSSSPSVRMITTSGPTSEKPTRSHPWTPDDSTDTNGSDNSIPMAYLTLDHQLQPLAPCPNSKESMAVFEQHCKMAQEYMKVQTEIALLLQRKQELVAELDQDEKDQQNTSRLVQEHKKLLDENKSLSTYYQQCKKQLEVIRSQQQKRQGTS

[5] = biological target: T5, GCK "Germinal central kinase" (Homo sapiens, UniProt Q12851); experiment: as above
T5 construct: gene MAP4K2; recombinant kinase (BC047865)
T5 sequence (Q12851 1-820): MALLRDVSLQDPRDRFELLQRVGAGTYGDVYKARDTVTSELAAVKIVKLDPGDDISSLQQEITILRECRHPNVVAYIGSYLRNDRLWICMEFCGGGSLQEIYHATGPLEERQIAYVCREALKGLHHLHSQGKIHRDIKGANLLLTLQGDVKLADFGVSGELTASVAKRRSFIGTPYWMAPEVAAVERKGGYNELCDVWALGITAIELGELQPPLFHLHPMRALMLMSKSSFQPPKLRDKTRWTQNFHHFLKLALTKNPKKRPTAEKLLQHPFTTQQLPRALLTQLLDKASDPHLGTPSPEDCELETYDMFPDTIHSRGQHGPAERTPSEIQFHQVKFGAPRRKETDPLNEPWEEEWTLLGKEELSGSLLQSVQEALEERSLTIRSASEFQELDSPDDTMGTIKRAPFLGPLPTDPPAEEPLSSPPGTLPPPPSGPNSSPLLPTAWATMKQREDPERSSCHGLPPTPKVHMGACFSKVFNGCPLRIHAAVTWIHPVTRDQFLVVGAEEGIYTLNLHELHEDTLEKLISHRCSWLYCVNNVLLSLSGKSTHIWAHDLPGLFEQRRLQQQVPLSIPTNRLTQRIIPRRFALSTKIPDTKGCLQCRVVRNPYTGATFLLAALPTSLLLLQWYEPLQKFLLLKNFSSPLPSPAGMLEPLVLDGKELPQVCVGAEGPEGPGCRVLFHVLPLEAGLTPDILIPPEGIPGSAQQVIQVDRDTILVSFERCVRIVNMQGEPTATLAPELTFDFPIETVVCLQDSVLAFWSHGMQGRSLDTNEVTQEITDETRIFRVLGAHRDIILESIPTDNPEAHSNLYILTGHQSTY

T2 sequence (P04629 33-796): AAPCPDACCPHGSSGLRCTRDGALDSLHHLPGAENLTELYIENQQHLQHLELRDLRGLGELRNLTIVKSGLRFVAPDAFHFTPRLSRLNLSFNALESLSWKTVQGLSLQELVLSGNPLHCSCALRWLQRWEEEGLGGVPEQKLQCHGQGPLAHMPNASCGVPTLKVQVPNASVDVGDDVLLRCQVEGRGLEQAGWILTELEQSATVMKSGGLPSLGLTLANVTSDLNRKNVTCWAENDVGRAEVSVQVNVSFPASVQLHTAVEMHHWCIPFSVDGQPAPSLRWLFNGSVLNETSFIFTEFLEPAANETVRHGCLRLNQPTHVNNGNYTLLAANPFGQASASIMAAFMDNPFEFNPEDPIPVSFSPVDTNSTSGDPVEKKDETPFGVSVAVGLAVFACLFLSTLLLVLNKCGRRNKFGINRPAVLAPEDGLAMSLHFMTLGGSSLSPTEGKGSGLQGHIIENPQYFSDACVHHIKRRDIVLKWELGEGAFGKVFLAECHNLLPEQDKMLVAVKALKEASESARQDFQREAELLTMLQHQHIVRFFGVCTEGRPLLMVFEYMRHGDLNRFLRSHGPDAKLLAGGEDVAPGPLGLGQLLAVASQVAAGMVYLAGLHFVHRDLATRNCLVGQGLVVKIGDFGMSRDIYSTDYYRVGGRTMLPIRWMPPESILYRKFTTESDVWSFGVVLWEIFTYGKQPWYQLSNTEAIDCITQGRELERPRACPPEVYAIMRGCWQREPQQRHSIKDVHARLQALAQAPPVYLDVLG

SMILES	inhibition at 1.5 µM [1]	remaining activity at 1 µM [2]	remaining activity at 1 µM [3]	remaining activity at 1 µM [4]	remaining activity at 1 µM [5]
O=c1cc(-c2ccc(O)cc2)oc2cc(O)cc(O)c12 [apigenin]	33%				
Cc1cncc2c1[nH]c1ccc3cc(OCCN(C)C)ccc3c12 [C2]		36 ± 2%	53 ± 2%	55 ± 3%	32 ± 1%
O=c1cc(-c2ccc(O)c(O)c2)oc2cc(O)cc(O)c12 [luteonin]	50%				
